Values quoted from earlier work in patent US12421507B2, “Methods and compositions for optochemical control of CRISPR-CAS9” (THE BROAD INSTITUTE, INC., priority 2018, dated 2025).

What was measured:
[1] = system: Mutants of human FKBP12
[2] = system: dystrophin exon 51; conditions: across 48 weeks
[3] = system: mammalian DHFR (DHFRts); conditions: cells expressing DHFRts

CC[C@H](C(=O)N1CCCC[C@H]1C(=O)O[C@H](CCc1ccc(OC)c(OC)c1)c1cccc(OCCN2CCOCC2)c1)c1cc(OC)c(OC)c(OC)c1 [Shield-1]
binding to and stabilization of the DD [1]: bind to and stabilize the DD in a dose-dependent manner

eteplirsen
average dystrophin positive fibers compared to baseline [2]: 47%

CN(Cc1cnc2nc(N)nc(N)c2n1)c1ccc(C(=O)N[C@@H](CCC(=O)O)C(=O)O)cc1 [methotrexate]
degradation of DHFRts [3]: inhibited degradation of the protein partially
